From ChEMBL document CHEMBL3822389, “New insights into 3-(aminomethyl)naphthoquinones: Evaluation of cytotoxicity, electrochemical behavior and search for structure-activity correlation” (Bioorg Med Chem Lett, 2016)

How the values were obtained:
[1] = system: MDA-MB-435; test: Cytotoxicity against human MDA-MB-435 cells after 72 hrs by MTT assay; type: functional, cell-based
[2] = Cytotoxicity against human HCT8 cells after 72 hrs by MTT assay; type: functional, cell-based, HCT-8
[3] = Cytotoxicity against human SF295 cells after 72 hrs by MTT assay; type: functional, cell-based, SF-295
[4] = Cytotoxicity against human HL60 cells after 72 hrs by MTT assay; type: functional, cell-based, HL-60

SMILES	IC50 ([1]; Homo sapiens, MDA-MB-435, 72 h)	IC50 ([2]; Homo sapiens, HCT-8, 72 h)	IC50 ([3]; Homo sapiens, SF-295, 72 h)	IC50 ([4]; Homo sapiens, HL-60, 72 h)	IC50 ([3]; sf-295)	IC50 ([4]; hl-60)	IC50 ([1]; mda-mb-435)	IC50 ([2]; hct-8)
CCCCCCCCCCNC(C1=C(O)C(=O)c2ccccc2C1=O)c1ccccc1O (centres undefined)	30.9 µM	32.2 µM	23.1 µM	12.2 µM	–	–	–	–
CCCCNC(C1=C(O)C(=O)c2ccccc2C1=O)c1ccc(Cl)cc1Cl (centres undefined) [listing 1 of 2 here]	–	–	> 40 µM	> 40 µM	–	–	–	–
CCCCNC(C1=C(O)C(=O)c2ccccc2C1=O)c1ccccc1O (centres undefined) [listing 1 of 2 here]	> 40 µM	> 40 µM	–	–	> 40 µM	> 40 µM	–	–
O=C1C(O)=C(C(NCc2ccccn2)c2ccccc2)C(=O)c2ccccc21 (centres undefined) [listing 1 of 2 here]	–	–	–	–	13.5 µM	5.4 µM	3.6 µM	6.3 µM
CCCCCCCCCCNC(C1=C(O)C(=O)c2ccccc2C1=O)c1ccccn1 (centres undefined)	23.3 µM	1.7 µM	1.7 µM	3.8 µM	–	–	–	–
O=C1C(O)=C(C(NCCCCl)c2cccc(O)c2)C(=O)c2ccccc21 (centres undefined)	> 40 µM	> 40 µM	> 40 µM	> 40 µM	–	–	–	–
CCCCNC(C1=C(O)C(=O)c2ccccc2C1=O)c1ccccc1O (centres undefined) [listing 2 of 2 here]	–	–	33.3 µM	–	–	6.5 µM	25.6 µM	20.5 µM
Cc1ccc(NC(C2=C(O)C(=O)c3ccccc3C2=O)c2ccccn2)cc1 (centres undefined)	> 40 µM	> 40 µM	> 40 µM	> 40 µM	–	–	–	–
O=C1C(O)=C(CNCCCCl)C(=O)c2ccccc21	> 40 µM	> 40 µM	> 40 µM	> 40 µM	–	–	–	–
CCCCCCCNC(C1=C(O)C(=O)c2ccccc2C1=O)c1cc(Br)ccc1O (centres undefined)	> 40 µM	> 40 µM	> 40 µM	> 40 µM	–	–	–	–
CC(C)(C)OC(=O)NCCNC(C1=C(O)C(=O)c2ccccc2C1=O)c1ccc(Cl)cc1Cl (centres undefined)	> 40 µM	> 40 µM	> 40 µM	> 40 µM	–	–	–	–
O=C1C(O)=C(C(NCc2ccccn2)c2ccccc2)C(=O)c2ccccc21 (centres undefined) [listing 2 of 2 here]	–	–	–	–	> 40 µM	> 40 µM	> 40 µM	14.3 µM
O=C1C(O)=C(C(NCCCCl)c2ccccc2O)C(=O)c2ccccc21 (centres undefined)	30.1 µM	17.7 µM	17.5 µM	8.1 µM	–	–	–	–
CCCCCCCNC(C1=C(O)C(=O)c2ccccc2C1=O)c1cccc(O)c1 (centres undefined)	> 40 µM	> 40 µM	> 40 µM	> 40 µM	–	–	–	–
CCCCNC(C1=C(O)C(=O)c2ccccc2C1=O)c1cc(Br)ccc1O (centres undefined) [listing 1 of 2 here]	> 40 µM	–	–	–	> 40 µM	> 40 µM	–	> 40 µM
CC(C)(C)OC(=O)NCCCNC(C1=C(O)C(=O)c2ccccc2C1=O)c1cccc(O)c1 (centres undefined)	> 40 µM	> 40 µM	> 40 µM	> 40 µM	–	–	–	–
O=C1C(O)=C(C(NCCCCl)c2cc(Br)ccc2O)C(=O)c2ccccc21 (centres undefined)	> 40 µM	> 40 µM	28.8 µM	8.4 µM	–	–	–	–
O=C1C(O)=C(C(NCc2ccccc2)c2cc(Br)ccc2O)C(=O)c2ccccc21 (centres undefined) [listing 1 of 2 here]	> 40 µM	15.9 µM	–	–	10.7 µM	4.9 µM	–	–
O=C1C(O)=C(C(NCCCCl)c2ccc(Cl)cc2Cl)C(=O)c2ccccc21 (centres undefined)	> 40 µM	> 40 µM	> 40 µM	> 40 µM	–	–	–	–
O=C1C(O)=C(C(Nc2ccccc2)c2ccccn2)C(=O)c2ccccc21 (centres undefined)	> 40 µM	> 40 µM	> 40 µM	> 40 µM	–	–	–	–

SMILES	IC50 ([1]; Homo sapiens, MDA-MB-435, 72 h)	IC50 ([2]; Homo sapiens, HCT-8, 72 h)	IC50 ([3]; Homo sapiens, SF-295, 72 h)	IC50 ([4]; Homo sapiens, HL-60, 72 h)	IC50 ([3]; sf-295)	IC50 ([4]; hl-60)	IC50 ([1]; mda-mb-435)	IC50 ([2]; hct-8)
CCCCNC(C1=C(O)C(=O)c2ccccc2C1=O)c1ccc(Cl)cc1Cl (centres undefined) [listing 2 of 2 here]	> 40 µM	> 40 µM	–	–	–	–	–	–
CCCCNC(C1=C(O)C(=O)c2ccccc2C1=O)c1cc(Br)ccc1O (centres undefined) [listing 2 of 2 here]	–	–	21.4 µM	–	–	6.2 µM	23.9 µM	12.5 µM
CCCCNC(C1=C(O)C(=O)c2ccccc2C1=O)c1ccccn1 (centres undefined)	> 40 µM	12.5 µM	9.5 µM	> 40 µM	–	–	–	–
O=C1C(O)=C(C(NCCCCl)c2ccc([N+](=O)[O-])cc2)C(=O)c2ccccc21 (centres undefined)	> 40 µM	> 40 µM	> 40 µM	> 40 µM	–	–	–	–
CCCCNC(C1=C(O)C(=O)c2ccccc2C1=O)c1cc(C)ccc1O (centres undefined) [listing 1 of 2 here]	–	–	–	–	5.5 µM	1.6 µM	11 µM	5.6 µM
CCCCCCCNC(C1=C(O)C(=O)c2ccccc2C1=O)c1ccc(Cl)cc1Cl (centres undefined)	> 40 µM	> 40 µM	> 40 µM	4.5 µM	–	–	–	–
O=C1C(O)=C(C(NCc2ccccc2)c2ccccn2)C(=O)c2ccccc21 (centres undefined)	> 40 µM	2.2 µM	1.3 µM	4.8 µM	–	–	–	–
CCCCCCCNC(C1=C(O)C(=O)c2ccccc2C1=O)c1ccccc1O (centres undefined)	33.3 µM	19.7 µM	18.9 µM	7.7 µM	–	–	–	–
CC(C)(C)OC(=O)NCCCNC(C1=C(O)C(=O)c2ccccc2C1=O)c1ccccc1 (centres undefined)	> 40 µM	> 40 µM	> 40 µM	> 40 µM	–	–	–	–
Cc1ccc(O)c(C(NCc2ccccc2)C2=C(O)C(=O)c3ccccc3C2=O)c1 (centres undefined) [listing 1 of 2 here]	18.7 µM	12.1 µM	–	–	14.4 µM	–	–	–
CC(C)(C)OC(=O)NCCCNC(C1=C(O)C(=O)c2ccccc2C1=O)c1ccc([N+](=O)[O-])cc1 (centres undefined)	> 40 µM	> 40 µM	> 40 µM	> 40 µM	–	–	–	–
O=C1C(O)=C(C(NCCCCl)c2ccccn2)C(=O)c2ccccc21 (centres undefined)	> 40 µM	> 40 µM	> 40 µM	> 40 µM	–	–	–	–
CCCCNC(C1=C(O)C(=O)c2ccccc2C1=O)c1ccc([N+](=O)[O-])cc1 (centres undefined) [listing 1 of 2 here]	–	–	> 40 µM	> 40 µM	–	–	–	–
O=C1C(O)=C(C(NCc2ccccc2)c2ccccc2O)C(=O)c2ccccc21 (centres undefined)	18.3 µM	14.4 µM	–	–	11.6 µM	4.6 µM	–	–
O=C1C(O)=C(C(NCc2ccco2)c2ccccn2)C(=O)c2ccccc21 (centres undefined)	> 40 µM	4.4 µM	3.3 µM	5.8 µM	–	–	–	–
O=C1C(O)=C(C(NCCCCl)c2ccccc2)C(=O)c2ccccc21 (centres undefined)	> 40 µM	> 40 µM	> 40 µM	> 40 µM	–	–	–	–
O=C1C(O)=C(C(NCc2ccccc2)c2cc(Br)ccc2O)C(=O)c2ccccc21 (centres undefined) [listing 2 of 2 here]	–	–	17.4 µM	8.4 µM	–	–	25.2 µM	14.9 µM
CCCCCCCCCCNC(C1=C(O)C(=O)c2ccccc2C1=O)c1cc(Br)ccc1O (centres undefined)	> 40 µM	> 40 µM	> 40 µM	> 40 µM	–	–	–	–
O=C1C(O)=C(C(NCc2ccco2)c2ccccc2O)C(=O)c2ccccc21 (centres undefined) [listing 1 of 2 here]	–	–	–	–	1.8 µM	1.2 µM	2.9 µM	3 µM
CCCCCCCNC(C1=C(O)C(=O)c2ccccc2C1=O)c1ccccc1 (centres undefined)	> 40 µM	> 40 µM	> 40 µM	> 40 µM	–	–	–	–

SMILES	IC50 ([1]; Homo sapiens, MDA-MB-435, 72 h)	IC50 ([2]; Homo sapiens, HCT-8, 72 h)	IC50 ([3]; Homo sapiens, SF-295, 72 h)	IC50 ([4]; Homo sapiens, HL-60, 72 h)	IC50 ([3]; sf-295)	IC50 ([4]; hl-60)	IC50 ([1]; mda-mb-435)	IC50 ([2]; hct-8)
CCCCCCCCCCNC(C1=C(O)C(=O)c2ccccc2C1=O)c1cccc(O)c1 (centres undefined)	31.1 µM	25.8 µM	> 40 µM	11.9 µM	–	–	–	–
CC(C)(C)OC(=O)NCCNC(C1=C(O)C(=O)c2ccccc2C1=O)c1ccccc1O (centres undefined)	26.3 µM	10.8 µM	15.9 µM	19.2 µM	–	–	–	–
CCCCCCCNC(C1=C(O)C(=O)c2ccccc2C1=O)c1ccccn1 (centres undefined)	> 40 µM	1.6 µM	1 µM	1.8 µM	–	–	–	–
CCCCNC(C1=C(O)C(=O)c2ccccc2C1=O)c1cc(C)ccc1O (centres undefined) [listing 2 of 2 here]	–	–	–	–	29.6 µM	6 µM	26.5 µM	17 µM
CC(C)(C)OC(=O)NCCNCC1=C(O)C(=O)c2ccccc2C1=O	> 40 µM	> 40 µM	> 40 µM	> 40 µM	–	–	–	–
CC(C)(C)OC(=O)NCCNC(C1=C(O)C(=O)c2ccccc2C1=O)c1ccccc1 (centres undefined)	> 40 µM	> 40 µM	> 40 µM	> 40 µM	–	–	–	–
CCCCNC(C1=C(O)C(=O)c2ccccc2C1=O)c1ccc([N+](=O)[O-])cc1 (centres undefined) [listing 2 of 2 here]	> 40 µM	> 40 µM	–	–	–	–	–	–
CCCCNC(C1=C(O)C(=O)c2ccccc2C1=O)c1cccc(O)c1 (centres undefined)	> 40 µM	> 40 µM	> 40 µM	> 40 µM	–	–	–	–
CC(C)(C)OC(=O)NCCCNC(C1=C(O)C(=O)c2ccccc2C1=O)c1ccccc1O (centres undefined)	37.8 µM	22.7 µM	26 µM	17.2 µM	–	–	–	–
COc1ccc(NC(C2=C(O)C(=O)c3ccccc3C2=O)c2ccccn2)cc1 (centres undefined)	> 40 µM	> 40 µM	> 40 µM	> 40 µM	–	–	–	–
Cc1ccc(O)c(C(NCc2ccccc2)C2=C(O)C(=O)c3ccccc3C2=O)c1 (centres undefined) [listing 2 of 2 here]	–	–	8.5 µM	7.2 µM	–	–	15.8 µM	11.3 µM
O=C1C(O)=C(C(NCc2ccccc2)c2ccc([N+](=O)[O-])cc2)C(=O)c2ccccc21 (centres undefined) [listing 1 of 2 here]	–	–	> 40 µM	> 40 µM	–	–	–	–
O=C1C(O)=C(C(NCc2ccco2)c2ccccc2O)C(=O)c2ccccc21 (centres undefined) [listing 2 of 2 here]	–	–	–	1.1 µM	23.4 µM	–	20.2 µM	14.4 µM
CCCCCCCNC(C1=C(O)C(=O)c2ccccc2C1=O)c1ccc([N+](=O)[O-])cc1 (centres undefined)	> 40 µM	> 40 µM	> 40 µM	> 40 µM	–	–	–	–
CC(C)(C)OC(=O)NCCCNC(C1=C(O)C(=O)c2ccccc2C1=O)c1ccc(Cl)cc1Cl (centres undefined)	16.2 µM	21.2 µM	> 40 µM	–	–	–	–	–
CC(C)(C)OC(=O)NCCNC(C1=C(O)C(=O)c2ccccc2C1=O)c1cccc(O)c1 (centres undefined)	> 40 µM	> 40 µM	> 40 µM	> 40 µM	–	–	–	–
CC(C)(C)OC(=O)NCCCNCC1=C(O)C(=O)c2ccccc2C1=O	> 40 µM	> 40 µM	> 40 µM	> 40 µM	–	–	–	–
CC(C)(C)OC(=O)NCCNC(C1=C(O)C(=O)c2ccccc2C1=O)c1ccc([N+](=O)[O-])cc1 (centres undefined)	> 40 µM	> 40 µM	> 40 µM	> 40 µM	–	–	–	–
O=C1C(O)=C(C(NCc2ccccc2)c2ccc([N+](=O)[O-])cc2)C(=O)c2ccccc21 (centres undefined) [listing 2 of 2 here]	> 40 µM	> 40 µM	–	–	–	–	–	–
COc1cccc2c1C(=O)c1c(O)c3c(c(O)c1C2=O)C[C@@](O)(C(=O)CO)C[C@@H]3O[C@H]1C[C@H](N)[C@H](O)[C@H](C)O1 [DOXORUBICIN]	–	–	0.39 µM	0.03 µM	–	–	–	–
